From patent US20260028334A1, “N-(3-(BENZO[B]THIOPHENE-2-CARBOXAMIDO)-PHENYL)-2,3-DIHYDROBENZO[B][1,4]DIOXINE-6-CARBOXAMIDE DERIVATIVES AND RELATED COMPOUNDS AS LACTATE/ATP PRODUCTION INHIBITORS FOR THE TREATMENT OF CANCER” (WMT Aktiengesellschaft, priority 2022, published 2026)

Legend:
Panc02 and SKOV3 cells [1] = experiment: Lactate production inhibition assay (FIGS. 8C and 8D); assay type: cell-based; conditions: 48 hours treatment, 1.5 to 10000 nM
From the text: (§1) Recombinant Lactate Dehydrogenase A (LDHA) was used to convert lactate in tissue culture supernatants to pyruvate, with the concomitant reduction of NAD^+ to NADH. The electron acceptor 1-methoxyphenazine methosulfate (MPMS) was then reduced by the generated NADH, thereby regenerating NAD+. Reduced 1-methoxyphenazine methosulfate is used in turn to reduce Water Soluble Tetrazolium 8 (WST8) to an orange WST8 formazan product. The assay is adapted from the publication “Application of WST-8 based colorimetric NAD(P)H detection for quantitative dehydrogenase assays” described in Chamchoy et al., BMC Biochemistry (2019) 20(1):4.
(§2) Cells were plated at 4,000 per well in 96-well plate in a medium of high glucose DMEM (PAN) supplemented with 10% FBS (PAN), 2 mM glutamine-alanine (PAN), 2 mM pyruvate (Sigma) and 10 mL/L penicillin-streptomycin (PAN) and grown at 37° C. in 0.5% O2, 5% CO2 and 75% humidity. For hypoxia, cells were grown and treated in the Whitley H35 Hypoxystation (Don Whitley Scientific) at 37° C. in 0.5% O2, 5% CO2 and 75% humidity. The next day, cells were induced with test compounds (FIG. 2: compounds of examples 3/16, 3/8, 10 at 10000, 3333, 1111, 370, 123, 41, 14, 5 and 1.5 nM; FIG. 7: compounds of examples 3/16, 3/8, 10 at 41, 14, 4.6 nM and Phenformin at 100, 50, 25, 12.5, 6.25 μM; FIGS. 8C and 8D: compounds of example 3/16, 3/8, 10, 3/19, 30 and 30/2 at 10000, 3333, 1111, 370, 123, 41, 14, 5 and 1.5 nM), as well as with vehicle (DMSO) only, for 48 hours. After this time, the medium was removed from the cells to measure extracellular lactate. To detect extracellular lactate, cell supernatants are diluted 1:5 in assay buffer (0.2 M tris, pH 8.2) by adding 10 μl cell supernatant+40 μl buffer in a 96-well plate. Assay substrate mix is prepared by adding NAD+ (3.75 mM), WST-8 (0.9 mM), MPMS (10 mM) and recombinant LDHA, expressed in E. coli as an N-terminal hexahistidine tagged fusion protein, is added to a final concentration of 0.8 μg/ml in assay buffer. Thereafter, 80 μl of substrate mix is added to 20 μl of diluted cell supernatant in a 96-well flat-bottomed plate and the absorbance at 460 nm determined at one minute intervals over a 30 minute period. A standard curve of known lactate concentrations of 10, 8, 6, 4, 1, 0.5 and 0.25 mM was constructed for each assay plate.

lactate production = experiment: Lactate production inhibition assay; assay type: cell-based; conditions: summary of Table 1
From the text: as §1, §2

Panc02 and SKOV3 cells [2] = experiment: Assay for inhibition of ATP production (FIGS. 8A and 8B); assay type: cell-based; conditions: 48 hours treatment, 1.5 to 10000 nM
Description: The assay determines the amount of ATP in cells in culture.
Cells were plated at 4,000 per well in 96-well plate in a medium of high glucose DMEM (PAN) supplemented with 10% FBS (PAN), 2 mM glutamine-alanine (PAN), 2 mM pyruvate (Sigma) and 10 mL/L penicillin-streptomycin and grown at 37° C. in 0.5% O2, 5% CO2 and 75% humidity. For hypoxia, cells were grown and treated in the Whitley H35 Hypoxystation (Don Whitley Scientific) at 37° C. in 0.5% O2, 5% CO2 and 75% humidity. The next day, cells were induced with test compounds (FIG. 1: compounds of examples 3/16, 3/8, 10 at 10000, 3333, 1111, 370, 123, 41, 14, 5 and 1.5 nM; FIGS. 8A and 8B: compounds of example 3/19, 30 and 30/2 at 10000, 3333, 1111, 370, 123, 41, 14, 5 and 1.5 nM), as well as with vehicle (DMSO) only, for 48 hours. After this time, the medium was removed from the cells and intracellular ATP levels were determined using the Promega CellTiter-Glo 2.0 assay protocol (Promega, G9241). To estimate the effect of compounds on the ATP production, sample values were compared to the values of DMSO only. IC50 values were generated by plotting the luciferase counts against compound concentration.

[3] = system: ER stress markers CHAC and CHOP/DDIT3; experiment: Gene expression analysis by qPCR (FIG. 8E-8AB); assay type: cell-based; conditions: Panc02 and SKOV3 cells, 10 nM, 0.5, 1, 2 and 4 hours
Description: Cells were plated at 40,000 cells per ml in medium of high glucose DMEM (PAN) supplemented with 10% FBS (PAN), 2 mM glutamine-alanine (PAN), 2 mM pyruvate (Sigma) and 10 mL/L penicillin-streptomycin (PAN), and grown at 37° C. in 0.5% O2, 5% CO2 and 75% humidity. Next day, cells were induced with test compounds (FIG. 3: compounds of example 3/16, 3/8, 10 at 10 nM; FIG. 8E-8AB: compounds of example 3/16, 3/8, 10, 3/19, 30 and 30/2 at 10 nM) 0.5, 1, 2 and 4 hours, as well as with vehicle (DMSO) only. After this time, the cells were lysed according to protocol (Promega, SV 96 Total RNA Isolation System, #Z3505). After transferring the lysate to a 96-well-RNA binding plate, RNA was isolated and put at approx. 1 μg into cDNA synthesis using LunaScript RT SuperMix Kit (NEB, #E3010). The resulting cDNA was diluted 1:5 and used for qPCR Analysis (Taqman). Luna Universal Probe qPCR Master Mix (NEB, #M3004) is used as 2× reaction mix to which the diluted cDNA is added. The qPCR analysis was performed using QuantStudio™ 6 Flex real-time PCR systems (Thermo Fisher Scientific).
A set of primers plus probe for each gene of interest was purchased at IDT (Integrated DNA Technologies).

[4] = patients treated with the drug; cited from earlier work

Compound: O=C(Nc1ccc(F)c(NC(=O)c2cc3ccc(OCC(O)CN4CCCC4)cc3s2)c1)c1ccc2c(c1)OCCO2 (racemic) [Example 30, N-(4-Fluoro-3-(6-(2-hydroxy-3-(pyrrolidin-1-yl)propoxy)benzo[b]thiophene-2-carboxamido)phenyl)-2,3-dihydrobenzo[b][1,4]dioxine-6-carboxamide]
- lactate levels (Panc02 and SKOV3 cells [1]): dose-dependent downregulation
- activity in inhibiting production of ATP and/or lactate (lactate production): high activity
- ATP production level (Panc02 and SKOV3 cells [2]): dose-dependent reduction
- ER stress markers CHAC and CHOP/DDIT3 [3]: time-dependent upregulation

Compound: O=C(Nc1ccc(F)c(NC(=O)c2cc3ccc(OC[C@H](O)CN4CCCC4)cc3s2)c1)c1ccc2c(c1)OCCO2 (single isomer, unassigned) [Example 30/2, N-(4-Fluoro-3-(6-(2-hydroxy-3-(pyrrolidin-1-yl)propoxy)benzo[b]thiophene-2-carboxamido)phenyl)-2,3-dihydrobenzo[b][1,4]dioxine-6-carboxamide]
- lactate levels (Panc02 and SKOV3 cells [1]): dose-dependent downregulation
- activity in inhibiting production of ATP and/or lactate (lactate production): high activity
- ATP production level (Panc02 and SKOV3 cells [2]): dose-dependent reduction
- ER stress markers CHAC and CHOP/DDIT3 [3]: time-dependent upregulation

Compound: CCN1CCN(Cc2ccc3cc(C(=O)Nc4cc(NC(=O)c5ccc6c(c5)OCCO6)ccc4F)sc3n2)CC1 [3/19]
- lactate levels (Panc02 and SKOV3 cells [1]): dose-dependent downregulation
- activity in inhibiting production of ATP and/or lactate (lactate production): high activity
- ATP production level (Panc02 and SKOV3 cells [2]): dose-dependent reduction
- ER stress markers CHAC and CHOP/DDIT3 [3]: time-dependent upregulation

Compound: CN(C)C(=N)N=C(N)N [Metformin, metformin]
- incidence of lactic acidosis [4]: 3 cases in 100,000 patients

Compound: [H]/N=C(/N)N/C(=N/[H])NCCc1ccccc1 [Phenformin, phenformin]
- incidence of lactic acidosis [4]: 64 cases in 100,000 patients
